Drawing on patent US20230150951A1, “2,5- OR 2,6-DISUBSTITUTED HYDROQUINONE DERIVATIVES WITH AT LEAST ONE CARBOXY, SULFO OR AMIDO GROUP USEFUL AS MEDICAMENTS” (OM PHARMA SA, priority 2020, published 2023), this text covers IC50 for one molecule.

What all share (assay type): cell-based
Assay [1] deals with TNF-beta. Briefly: Cytokine release after LPS induction on human whole blood: TNFβ. As to the method:
(§1) Aim of this in vitro method is to assess compounds effects on release of a panel of cytokines from whole blood following lipopolysaccharide (LPS) induced inflammatory reaction. Whole blood was incubated with compounds for 1 h prior to LPS induction. Cytokine levels in blood were measured using a multiplex FACS-based panel.
(§2) IC50 values determined for the tested compounds expressed in microM [μM] and the values for the inhibition of cytokines were listed for each compound.
(§3) Effect on cytokines release after LPS induction was performed on the compounds dissolved in DMSO or H2O to reach 10-fold concentrated stock solutions and dissolved in culture media.
(§4) Test system: Whole blood was removed from a single donor (into lithium heparin coated tubes; BD Vacutainer; 367886) and diluted 1:5 with RPMI 1640 (Thermo Fisher, 61870036). Within 30 minutes of sampling, blood was incubated with compounds for 1 h prior to LPS stimulation (O111:B4—Sigma L4391; 10 ng/ml final concentration). Stimulation continued under standard cell culture conditions (37° C. with 5% CO2) overnight (18 h), after which plates were centrifuged and supernatant removed and frozen at −80° C. until used for analyses.
(§5) Dilution of test compounds: 10×concentrated solutions (concerning to the final assay concentrations) of each test compound were prepared with the appropriate solvent (in DMSO or in water). These 10× compound solutions (10 μl) were then added to 90 μl pre-diluted whole blood (whole blood: RPMI1640, 1:5) resulting in the final assay concentration.
(§6) Test method: Diluted whole blood (80 μl) was pre-incubated with compounds (10 μl) to give final assay concentrations of 100, 30, 10, 3, 1, 0.3 and 0.1×10^−6M. Blood was incubated at 37° C. with 5% CO2 for 1 h. LPS was diluted in cell culture media to a concentration of […]; 10 μl was added to the whole blood to give a final concentration of 10 ng/ml. Plates were incubated at 37° C. for 18 h. Plates were centrifuged at 3,000 RPM for 5 minutes at 4° C. and supernatant removed and frozen at −80° C. until FACS analysis was carried out.
(§7) Cytokine release was measured using a custom multiplex system (ELISA Genie) according to manufacturers instructions. Prepared samples were run on an Attune NxT flow cytometer (Thermo Fisher).
(§8) Quantification of cytokine release inhibition: known concentration standards were run as part of the cytokine panel to allow quantification of each cytokine concentration in each sample. This was carried out using FCAP Array v3.0 software.
(§9) Results: The dose response relationship on cytokine release following LPS induction of inflammatory response in whole blood was assessed for all compounds. IC50 values were determined for each compound for a panel of cytokines (GM-CSF, IFN-gamma, IL-1beta, IL-2, IL-4, IL-5, IL-6, IL-8, IL-9, IL-10, IL-12p40, IL-13, IL-17A, IL-17F, IL-18, IL-21, IL-22, IL-33, TGF-beta, TNF-alpha, TNF-beta).

Assay [2] has as its system IL-17F. The assay can be described thus: Cytokine release after LPS induction on human whole blood: IL-17F. The method, then: as §1, §2, §3, §4, §5, §6, §7, §8, §9
Assay [3] concerns IL-2. The assay can be described thus: Cytokine release after LPS induction on human whole blood: IL-2. As to the method:
as §1, §2, §3, §4, §5, §6, §7, §8, §9

The subject of assay [4] is IL-13. The assay can be described thus: Cytokine release after LPS induction on human whole blood: IL-13. As to the method: as §1, §2, §3, §4, §5, §6, §7, §8, §9
For assay [5], the system named is IL-4. The assay can be described thus: Cytokine release after LPS induction on human whole blood: IL-4. The method, then:
as §1, §2, §3, §4, §5, §6, §7, §8, §9

For assay [6], the target named is T1, VEGFR-2 (Homo sapiens, UniProt P35968).
T1 construct: endogenous in cells; host or cells: primary HUVEC
The assay can be described thus: VEGF-165 induced phosphorylation of VEGF-Receptor on HUVEC. Conditions: HUVEC preincubated 60 min, VEGF165 25 ng/mL 2 min; read-out: VEGFR-Phosphorylation inhibition IC50.

In assay [7] the test system is IL-18. The assay can be described thus: Cytokine release after LPS induction on human whole blood: IL-18. The method, then: as §1, §2, §3, §4, §5, §6, §7, §8, §9

Read-outs that look alike come from different tables or passages of the source.

T1 sequence (P35968 20-1356): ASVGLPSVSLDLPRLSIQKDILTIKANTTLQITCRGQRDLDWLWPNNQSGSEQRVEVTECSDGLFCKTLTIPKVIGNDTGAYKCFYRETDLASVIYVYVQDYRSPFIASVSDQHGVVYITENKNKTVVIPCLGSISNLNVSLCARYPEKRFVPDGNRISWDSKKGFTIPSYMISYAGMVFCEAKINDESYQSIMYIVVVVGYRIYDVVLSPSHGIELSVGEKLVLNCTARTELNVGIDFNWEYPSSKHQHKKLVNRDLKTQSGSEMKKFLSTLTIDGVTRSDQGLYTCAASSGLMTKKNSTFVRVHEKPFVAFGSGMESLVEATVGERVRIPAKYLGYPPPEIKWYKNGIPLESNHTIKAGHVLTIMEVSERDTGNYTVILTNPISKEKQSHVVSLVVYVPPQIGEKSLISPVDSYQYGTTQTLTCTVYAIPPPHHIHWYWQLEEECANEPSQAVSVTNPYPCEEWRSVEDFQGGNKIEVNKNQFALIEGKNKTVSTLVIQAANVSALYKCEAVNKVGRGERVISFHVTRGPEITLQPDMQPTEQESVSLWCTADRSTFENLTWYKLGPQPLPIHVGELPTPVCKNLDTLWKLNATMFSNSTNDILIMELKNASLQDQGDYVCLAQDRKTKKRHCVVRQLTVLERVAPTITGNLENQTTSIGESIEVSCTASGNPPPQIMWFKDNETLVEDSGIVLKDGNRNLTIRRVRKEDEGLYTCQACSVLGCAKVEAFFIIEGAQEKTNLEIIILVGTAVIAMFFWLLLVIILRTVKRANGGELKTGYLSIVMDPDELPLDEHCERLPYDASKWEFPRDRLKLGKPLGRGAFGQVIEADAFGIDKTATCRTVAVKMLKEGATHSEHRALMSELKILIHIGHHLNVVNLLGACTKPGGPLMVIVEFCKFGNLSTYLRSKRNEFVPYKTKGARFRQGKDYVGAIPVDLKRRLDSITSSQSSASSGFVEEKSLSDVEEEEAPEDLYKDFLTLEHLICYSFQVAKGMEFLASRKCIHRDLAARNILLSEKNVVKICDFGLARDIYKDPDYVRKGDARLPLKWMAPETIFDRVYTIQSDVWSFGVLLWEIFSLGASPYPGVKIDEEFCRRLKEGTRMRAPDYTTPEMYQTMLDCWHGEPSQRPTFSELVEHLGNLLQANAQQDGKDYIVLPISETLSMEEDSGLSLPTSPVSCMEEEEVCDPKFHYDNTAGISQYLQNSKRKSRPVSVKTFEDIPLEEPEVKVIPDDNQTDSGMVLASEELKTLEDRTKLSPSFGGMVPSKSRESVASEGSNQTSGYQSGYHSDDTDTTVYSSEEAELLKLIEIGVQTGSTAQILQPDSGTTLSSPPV

As to `CCOC(=O)c1cc(NC(=O)c2cc(O)c(C(=O)OCC)cc2O)cc(NC(=O)c2cc(O)c(C(=O)OCC)cc2O)c1` [Ib-010a-E3, ethyl 3,5-bis(2,5-dihydroxy-4-ethoxycarbonylbenzoylamino)benzoate], the half-inhibitory concentration (IC50) in assay [1] (Homo sapiens, LPS 10 ng/ml, 18 h, read-out: Whole Blood: TNF β IC50) turned out to be 38.2 µM; in assay [1] (human whole blood, inhibition of LPS induced inflammation, read-out: IC50 β), 38.2 µM; in assay [2] (Homo sapiens, LPS 10 ng/ml, 18 h, read-out: Whole Blood: IL-17F IC50), 34.2 µM; in assay [2] (human whole blood, inhibition of LPS induced inflammation, read-out: IC50 IL-17F), 34.2 µM; in assay [3] (Homo sapiens, LPS 10 ng/ml, 18 h, read-out: Whole Blood: IL-2 IC50), 36.2 µM; in assay [3] (human whole blood, inhibition of LPS induced inflammation, read-out: IC50 IL-2), 36.2 µM. Further, the IC50 is 33 µM in assay [4] (Homo sapiens, LPS 10 ng/ml, 18 h, read-out: Whole Blood: IL-13 IC50); 33 µM in assay [4] (human whole blood, inhibition of LPS induced inflammation, read-out: IC50 IL-13); over 100 µM in assay [5] (Homo sapiens, LPS 10 ng/ml, 18 h, read-out: Whole Blood: IL-4 IC50); 100 µM in assay [5] (human whole blood, inhibition of LPS induced inflammation, read-out: IC50 IL-4); 0.09 µM in assay [6]; over 100 µM in assay [7] (Homo sapiens, LPS 10 ng/ml, 18 h, read-out: Whole Blood: IL-18 IC50). Also, the half-inhibitory concentration (IC50) in assay [7] (human whole blood, inhibition of LPS induced inflammation, read-out: IC50 IL-18) was 100 µM.

Usually IC50 stands for the concentration at which inhibition is half-maximal.
